# Data reported in paper PMC12866797, “Targeting DESI2 as a Novel Therapeutic Strategy for JAK2‐Mutant Leukemias” (Advanced Science, 2025).
# Experiments:
# DESI2 [1] = biological target: T1, DESI2 (Homo sapiens, UniProt Q9BSY9); test: thermal shift assay; assay type: binding; conditions: 100 µM compound
# T1 construct: residues 1-194, pET28a vector, E. coli BL21 (DE3), Ni-NTA purified
# DESI2 [2] = biological target: T1, DESI2; test: Ub-AMC fluorescence assay, initial rate; assay type: biochemical
# JOSD1 = JOSD1 (Homo sapiens, UniProt Q15040); test: Ub-Rho fluorescence assay; assay type: biochemical
# T1 sequence (Q9BSY9 whole entry, the tested form may be a part): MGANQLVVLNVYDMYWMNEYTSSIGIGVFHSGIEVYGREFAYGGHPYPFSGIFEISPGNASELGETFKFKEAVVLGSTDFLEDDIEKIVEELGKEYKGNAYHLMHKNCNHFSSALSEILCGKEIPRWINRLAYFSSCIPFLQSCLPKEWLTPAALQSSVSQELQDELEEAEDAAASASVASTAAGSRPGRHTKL
compound,measurement,setting,value
N#CN1CC[C@H](C(=O)Nc2nc3cc(-c4ccc5c(c4)OCO5)ccc3s2)C1 [WWQ-03-012],dTm,DESI2 [1],3.5 °C
same,IC50,DESI2 [2],47.3 nM
same,IC50,JOSD1,> 10 µM
